Results published in PMC5638327, “Comparison of bioavailability and antiplatelet action of ticagrelor in patients with ST-elevation myocardial infarction and non-ST-elevation myocardial infarction: A prospective, observational, single-centre study” (PLoS ONE, 2017).

Columns and labels:
platelet reactivity [1] = system: platelet reactivity; set-up: method as in PMID 27885888; details: STEMI patients, first hour after ticagrelor LD, parenteral; cited from earlier work
[2] = Pharmacokinetic assessment: plasma concentrations by liquid chromatography tandem mass spectrometry after ticagrelor loading dose; assay type: in vivo, human (patients with myocardial infarction); details: for AUC(0–6) / AUC(0–12): oral 180 mg ticagrelor LD, plasma, median [interquartile range]
Description: Consecutive STEMI and NSTEMI patients admitted to the study site (Cardiology Department, Dr. A. Jurasz University Hospital, Bydgoszcz, Poland) were screened for eligibility. After admission to the study centre, confirmation of the initial diagnosis of STEMI or NSTEMI, and provision of a written informed consent to participate in the trial, all study participants received an oral 300 mg LD of plain aspirin (Polpharma SA, Starogard Gdański, Poland) and 180 mg LD ticagrelor in integral tablets with 250 mL tap water. Subsequently, within 15 minutes of ticagrelor LD, all patients underwent coronary angiography followed by PCI as required. During the periprocedural period, all study participants received unfractionated heparin in body weight adjusted dose according to the European Society of Cardiology (ESC) recommendations. Plasma concentrations of ticagrelor and its active metabolite, as well as their antiplatelet effect, were evaluated according to the sampling schedule employed at our centre in previous PK/PD study (pre-treatment, 0.5 h, 1 h, 2 h, 3 h, 4 h, 6 h and 12 h post ticagrelor LD).
Blood samples for PK/PD evaluation were obtained from an 18-gauge cannula inserted into one of the forearm veins. The first 5 mL blood was discarded to avoid spontaneous platelet activation. In each patient specimens were collected at the eight pre-defined time. Detailed description of blood sample processing has been published in the study protocol (S1 File).
Ticagrelor and AR-C124910XX plasma concentrations were analyzed with liquid chromatography coupled with tandem mass spectrometry, using a validated method. Lower limits of quantification were 4.69 ng/mL for both ticagrelor and AR-C124910XX.
Statistical calculations were performed using the Statistica 12.5 package (StatSoft, Tulsa, OK, USA). Pharmacokinetic calculations and plots were made using the Matlab R2014 software (Mathworks, Natick, MA, USA); trapezoidal rule was applied to calculate AUC. Data for pharmacokinetic features of ticagrelor and AR-C124910XX, pharmacodynamic outcome variables, creatinine, glomerular filtration rate and left ventricle ejection fraction were presented as medians and interquartile ranges. Data for heart rate, systolic and diastolic blood pressure, age and body mass index were presented as means with standard deviations. […] Continuous variables were compared between both study groups with the Student’s t-test and Mann-Whitney U test, depending on the presence or absence of the normal distribution (as assessed by the Shapiro-Wilk test). Comparisons between categorical variables were performed by the chi-square test, with Yates's correction if necessary, or using Fisher's exact test. […]
Blood samples for pharmacokinetic and phar- infarction; PCI, percutaneous coronary intervention; PD, macodynamic assessment will be drawn at eight prede- pharmacodynamics; PK, pharmacokinetics; STEMI, ﬁned time points according to the blood sampling ST-elevation myocardial infarction. schedule already used at our site in a previous study
( pretreatment baseline, 30 min, 1, 2, 3, 4, 6 andsamples will be stored at temperature below −60°C until 12 hours post-ticagrelor LD— as shown in ﬁgure 1). 31 analysed.
All enrolled patients with ﬁnally unconﬁrmed initial Venous blood for the assessment of pharmacodynam-diagnosis of AMI will be excluded from the primar y ana- ics with the vasodilator-stimulated phosphoprotein lysis. Patients qualiﬁed for urgent coronar y arter y bypass (VASP) assay and multiple electrode aggregometr y surgery within the blood sampling period also will not (MEA) will be collected into trisodium citrate and be included in the analysis. All study participants not hirudin vacuum test tubes, respectively. The ﬁrst 3–5mL receiving PCI will be reported. of blood will be discarded to avoid spontaneous platelet Study population activation. The pharmacodynamic analysis will be per- […]

[3] = set-up: method as in PMID 20551239; details: blood plasma, after ticagrelor; cited from earlier work
platelet reactivity [4] = system: platelet reactivity; set-up: method as in PMID 27366874; details: STEMI patients on prasugrel with concomitant morphine, intravenous; cited from earlier work

## CSCCNc1nc(SCCC(F)(F)F)nc2c1ncn2[C@@H]1O[C@H](COP(=O)(O)OP(=O)(O)C(Cl)(Cl)P(=O)(O)O)[C@@H](O)[C@H]1O [cangrelor]
Platelet reactivity [1]
  effect on platelet reactivity and HPR: markedly reduced platelet reactivity and basically eliminated HPR phenomenon

## CCCSc1nc(N[C@@H]2C[C@H]2c2ccc(F)c(F)c2)c2nnn([C@@H]3C[C@H](O)[C@@H](O)[C@H]3O)c2n1 [AR-C124910XX]
[2]; NSTEMI patients (n = 24)
  AUC(0–6): 712 [346–1616] ng*h/mL
[2]; NSTEMI patients
  AUC(0–12): 1523 [1005–2867] ng*h/mL
[2]; STEMI patients (n = 49)
  AUC(0–6): 473 [0–924] ng*h/mL
[2]; STEMI patients
  AUC(0–12): 1383 [766–2182] ng*h/mL
[2]; first 6 h after 180 mg ticagrelor LD
  lower AUC(0–6) in STEMI than in NSTEMI patients: 34%
[3]
  plasma concentration relative to the main compound: 30–40%

B1: abciximab (antibody, chains of the INN, looked up, V domains shown)
VH: EVQLQQSGTVLARPGASVKMSCEASGYTFTNYWMHWVKQRPGQGLEWIGAIYPGNSDTSYIQKFKGKAKLTAVTSTTSVYMELSSLTNEDSAVYYCTLYDGYYVFAYWGQGTLVTVSA
VL: EIVLTQSPVTLSVTPGDSVSLSCRASRDISNNLHWFQQTSHESPRLLIKYASQSMSGIPSRFSGSGSGTDFTLSINSVETEDFGMYFCQQTNSWPYTFGGGTKLEIK
modifications: Fab
Platelet reactivity [4]
  platelet inhibition: immediate and efficient platelet inhibition
